In paper PMC9582434, “Ryanodine receptor-active non-dioxin-like polychlorinated biphenyls cause neurobehavioral deficits in larval zebrafish” (Frontiers in Toxicology, 2022):
Entries after “also recorded” stand apart in the source; their conditions may differ.

Legend:
[1] = system: RYR paralogs found in zebrafish skeletal muscle; experiment: [3H]ryanodine ligand binding assay, adult zebrafish tail muscle microsomes; details: for Max. response SEM (%): maximum [3H]Ry binding response compared to DMSO control, mean ± SEM; for EC50: relative EC50, concentration causing half-maximum response, PCB 0.1–50 μM; for RYR activity (in words): zebrafish muscle; for EC2X: concentration causing two-fold induction in ligand binding vs DMSO control
Method: Sensitization of the zebrafish RYR by ortho-PCBs was measured using [^3H]ryanodine ([^3H]Ry) ligand binding assays as previously described ([Fritsch and Pessah, 2013]). Briefly, crude microsomal protein preparations were created from the tail (post dorsal fin) muscle (primarily white skeletal muscle) of six adult zebrafish (∼1 year old) that was homogenized in a buffer containing 320 mM sucrose, 5 mM HEPES, 1 mM PMSF, 10 mM NaF, 2 mM β-Glycerol, 5 mM Na4P2O7, 0.5 mM Na3VO4 and 2 μg/L leupeptin (pH 7.2). The homogenate was centrifuged at 5,000 × g (4°C) for 15 min. The pellet was re-homogenized in 5 ml homogenization buffer and centrifuged at 5,000 × g. Supernatants were combined for ultracentrifugation at 100,000 g (4°C for 1 h). The resultant pellet was re-suspended in a buffer of 320 mM sucrose and 5 mM HEPES (Sigma-Aldrich, St. Louis, MO, United States) at pH 7.2. Protein concentrations were determined in triplicate using a BCA Assay (Fisher Scientific, Waltham, MA, United States). [^3H]Ry ligand binding assays were conducted with 40 μg/ml of the crude protein homogenate in the presence of DMSO (0.5%) or 0.1–50 μM of individual PCB congeners in 0.5% DMSO. Tests were run using 5 nM [^3H]Ry (Perkin Elmer Waltham, MA, United States), 250 mM KCl, 20 mM HEPES, 15 mM NaCl, and 50 μM CaCl2 (pH 7.1) and incubated for 16 h at 25°C. Non-specific binding was determined with the addition of 10 µM ryanodine (Tocris Bioscience, Bristol, United Kingdom) and 200 μM EGTA (Sigma-Aldrich, St. Louis, MO, United States). Assays were terminated by rapid filtration through Whatman GF/B filter paper (Brandel, Gaithersburg, MD, United States) and washed with ice-cold buffer containing 140 mM KCl, 10 mM HEPES, and 0.1 mM CaCl2, pH 7.4. Bound radioligand was measured by liquid scintillation counting (Beckman Coulter, Indianapolis, IN, United States). PCB-induced [^3H]Ry binding was assessed in two different protein preparations, and each assay was run in triplicate. Individual PCB concentration-response curves were determined using non-linear regression (GraphPad Prism 6.0, GraphPad Software Inc., San Diego, CA, United States).

larval zebrafish = experiment: Larval photomotor behavior test (light/dark locomotor test); format: in vivo; details: for Behavior score (total change from control): sum of absolute [1 − (AUC value/DMSO)] over all concentrations, epochs and 3, 4, 5 dpf; for distance traveled relative to vehicle control: on average across larval ages
Method: At 4 hpf, embryos were treated with 50 µl of 41 mg/ml protease from Streptomyces griseus (P5147, Sigma-Aldrich, St. Louis, MO, United States) in 25 ml of FW for a maximum of 6 min to remove the chorion ([Truong et al., 2011]). At 5 hpf, embryos were placed in individual wells of 96-well plates filled with 100 µl of EM. At 6 hpf, embryos were exposed to a 2× concentration of the selected PCB congeners or controls that were diluted in 100 μl EM to produce a 1× concentration in a total of 200 µl solution. […] After exposure, plates were covered with Parafilm M (Bemis NA, Neenah, WI, United States) to reduce evaporation and placed in an incubator at 28.5°C with 14 h light (∼300 lux)/10 h dark cycles. Final DMSO concentrations were 0.2% (vol/vol) for all exposures. Fish were statically exposed until 5 dpf.
Larval locomotor tests were performed at 3, 4, and 5 dpf. Vehicle and PCB-exposed larvae in 96-well plates were placed in a DanioVision behavior system (Noldus Information Technology, Leesburg, VA, United States) and subjected to a 35 min light/dark locomotor test. System and plate temperature were maintained at 28.5 ± 0.5°C using a temperature control unit from Noldus. The testing paradigm consisted of a 10 min light period (∼1,900 lux) to allow for acclimation (5 min) and to record baseline swimming (5 min). This was followed by a 5 min dark period (∼0 lux) to stimulate increased swimming behavior and a 5 min light period (∼1,900 lux) to stimulate freezing behavior. The last 15 min consisted of a dark period (∼0 lux) to observe increased swimming behavior and acclimation to the dark conditions.
The distance traveled binned per minute by each larva during the 35-min observation test period was recorded via continuous tracing using a DanioVision system camera with an infrared filter to allow recording in both light and dark conditions. Movement was tracked using EthoVisionXT software (Noldus Information Technology) and exported to Excel and Prism 6.0 (GraphPad Software) for analysis and visualization. Dead and/or malformed larvae (as noted by observation under dissecting scope) were excluded from the behavior analysis.
The trapezoidal rule was used to compute the area under the curve (AUC) for each fish per day per lighting condition. The first 5 min of the 35-min observation period was removed to account for initial acclimation. Therefore, data were analyzed for the following time epochs: Light 1 (L1) = 6–10 min, Dark 1 (D1) = 11–15 min, Light 2 (L2) = 16–20 min, and Dark 2 (D2) = 21–35 min. Mixed effects regression models, including zebrafish-specific random effects, were used to assess differences between groups. DMSO groups from each spawn date (≥3 independent spawns) and plate were combined in the analysis. Separate models were fit for each congener. New variables were defined to capture differences in the AUC between Light 1 and Dark 1, Dark 1 and Light 2, and Light 2 and Dark 2, to measure change in distance traveled when transitioning from light to dark or dark to light. Contrasts were specified to compare these transitions and the AUC during each of the lighting conditions between the exposed groups and the DMSO control group. […] Due to some zeroes in the AUC, all values were shifted by 0.1 prior to taking the natural logarithm. Concentration (0.1, 0.3, 1, 3, 10 µM and DMSO), day (3, 4, 5 dpf), and the transition variables were all of interest in the models, including their interactions. Akaike information criterion was used for model selection and Wald tests for comparing groups. All analyses were conducted using SAS version 9.4.
The neurotoxic potential of the congeners tested in this study were ranked based on the three endpoints measured in this study: RYR binding, behavior, and body burden. Congeners were ranked relative to each other for each individual endpoint from 1 (highest) to 6 (lowest), and then the three scores for each congener averaged to obtain an overall relative ranking for each congener. […]

Row | SMILES | concentration failing to cause a 2-fold (EC2X) increase in channel activity [1] | Max. response SEM (%) [1] [%] | EC50 [1] [µM] | RYR activity (in words) [1] | distance moved relative to vehicle control (larval zebrafish; 0.3 µM, 4 dpf, L1) | distance moved relative to vehicle control (larval zebrafish; 3 µM, 3 dpf, D2) | distance moved relative to vehicle control (larval zebrafish; 10 µM, 3 dpf, D2) | Behavior score (total change from control) (larval zebrafish) | EC2X [1] | distance moved relative to vehicle control (larval zebrafish; 3 µM, 3 dpf, L2) | L1-D1 transition relative to vehicle control (larval zebrafish; 3 µM, 5 dpf) | distance moved relative to vehicle control (larval zebrafish; 3 µM, 5 dpf, L1) | distance moved relative to vehicle control (larval zebrafish; 10 µM, 3 dpf, D1) | distance moved relative to vehicle control (larval zebrafish; 10 µM, 3 dpf, L1) | distance moved relative to vehicle control (larval zebrafish; 10 µM, 3 dpf, L2) | L1-D1 transition relative to vehicle control (larval zebrafish; 10 µM, 4 dpf) | L1-D1 transition relative to vehicle control (larval zebrafish; 10 µM, 5 dpf) | distance moved relative to vehicle control (larval zebrafish; 10 µM, 5 dpf, L1) | distance moved relative to vehicle control (larval zebrafish; 10 µM, 5 dpf, D2) | further results
1 | Clc1ccc(-c2ccc(Cl)cc2Cl)cc1 [PCB 28] | above 10 µM | 170.60 ± 13.28 | 0.67 | limited | traveling less | significantly less | significantly less | 10.83 | – | – | – | – | – | – | – | – | – | – | – | increase of L1-D1 transition relative to vehicle controls (larval zebrafish; 0.1 µM, 4 dpf): 0.9 mm; distance moved relative to vehicle control (larval zebrafish; 0.1 µM, 4 dpf, D1): significantly more; increase of L1-D1 transition relative to vehicle controls (larval zebrafish; 0.3 µM, 4 dpf): 1.3 mm; distance moved relative to vehicle control (larval zebrafish; 0.3 µM, 4 dpf, D1): significantly more; increase of L1-D1 transition relative to vehicle controls (larval zebrafish; 1 µM, 4 dpf): 0.87 mm; distance moved relative to vehicle control (larval zebrafish; 1 µM, 4 dpf, D1): significantly more; increase of L1-D1 transition relative to vehicle controls (larval zebrafish; 3 µM, 4 dpf): 0.9 mm; distance moved relative to vehicle control (larval zebrafish; 3 µM, 4 dpf, D1): significantly more; increase of L1-D1 transition relative to vehicle controls (larval zebrafish; 10 µM, 4 dpf): 0.8 mm; distance moved relative to vehicle control (larval zebrafish; 10 µM, 5 dpf, L2): moved less
2 | Clc1ccc(-c2ccc(Cl)c(Cl)c2)c(Cl)c1 [PCB 66] | above 10 µM | – | > 50 | negligible; also recorded: limited | – | – | – | 14.39 | – | – | – | – | – | – | – | – | – | – | – | distance traveled relative to vehicle control (larval zebrafish; 0.11 µM, L1): significantly decreased; distance traveled relative to vehicle control (larval zebrafish; 1 µM, L1): significantly decreased
3 | Clc1cccc(-c2c(Cl)ccc(Cl)c2Cl)c1Cl [PCB 84] | – | 437.50 ± 35.72 | 8.97 | – | significantly less movement | – | moved more | 28.93 | 6.97 | moved more | increased less | moved more | moved more | Increased | Increased | moved less | increased less | moved more | – | maximal effect compared to the DMSO control ([1]; concentrations above 3 µM): 400%; change in RYR activity at low concentrations ([1]; concentrations below 3 µM, biphasic effect): significant reduction; distance moved relative to vehicle control (larval zebrafish; 0.1 µM, 3 dpf, D1): moved less; distance moved relative to vehicle control (larval zebrafish; 0.1 µM, 3 dpf, D2): moved less; distance moved relative to vehicle control (larval zebrafish; 0.1 µM, 3 dpf, L2): moved less; L1-D1 transition relative to vehicle control (larval zebrafish; 0.3 µM, 4 dpf): moved more; distance moved relative to vehicle control (larval zebrafish; 0.3 µM, 5 dpf, L1): moved more; L1-D1 transition relative to vehicle control (larval zebrafish; 1 µM, 4 dpf): moved more; distance moved relative to vehicle control (larval zebrafish; 1 µM, 4 dpf, L1): significantly less movement
4 | Clc1ccc(Cl)c(-c2c(Cl)ccc(Cl)c2Cl)c1 [PCB 95, 2,2',3,5',6-pentachlorobiphenyl] | – | 734.70 ± 49.87 | 3.79 | high | – | moved more | significantly more | 81.46 | 1.5 | moved more | significantly less | more | significantly more | significantly more | significantly more | decreased | decreased | more | significantly less | increase in [3H]Ry-binding ([1]; measure of channel activation): ~800%; L1-D1 transition relative to vehicle control (larval zebrafish; 0.1 µM, 4 dpf): moved more; distance moved relative to vehicle control (larval zebrafish; 10 µM, 4 dpf, D1): significantly less; distance moved relative to vehicle control (larval zebrafish; 10 µM, 4 dpf, L1): significantly more; distance moved relative to vehicle control (larval zebrafish; 10 µM, 4 dpf, L2): significantly more; distance moved relative to vehicle control (larval zebrafish; 10 µM, 5 dpf, D1): significantly less
5 | Clc1cc(Cl)c(-c2ccc(Cl)c(Cl)c2Cl)cc1Cl [PCB 138] | – | 388.20 ± 74.93 | 9.6 | moderate | – | moved more | moved more | 29.32 | 4.18 | – | – | – | moved more | – | – | – | – | – | moved less | increase of L1-D1 transition compared to the control group (larval zebrafish; 0.3 µM, 4 dpf): 0.821; distance moved relative to vehicle control (larval zebrafish; 1 µM, 3 dpf, D1): moved more; increase of L1-D1 transition compared to the control group (larval zebrafish; 1 µM, 4 dpf): 0.68; distance moved relative to vehicle control (larval zebrafish; 3 µM, 3 dpf, D1): moved more; decrease of L1-D1 transition compared to controls (larval zebrafish; 3 µM, 5 dpf): 0.7; decrease of L1-D1 transition compared to the control group (larval zebrafish; 10 µM, 4 dpf, not quite statistically significant (p = 0.06)): 0.6
